Results taken from patent publication US10822376B2, “Biologically active peptides” (Baxalta Incorporated, priority 2008, dated 2020).
Where a SMILES comes first, the peptide text is derived from it. Bridges are numbered along the chain shown (N, C = ends). Roman numbers before positions name the chains, in order. [ ]: non-standard residue; d: D form.

How the values were obtained:
[1] = test system: FVIII-inhibited human normal plasma; assay: Defined Fibrin Deposition Assay (clotting time); format: biochemical
Protocol: Another suitable assay to determine procoagulant activity, and particularly FVIII equivalent activity or FVIII inhibitor bypassing activity, is the Defined Fibrin Deposition Assay as described below. […] This assay is particularly useful for determining coagulation FVIII activity because it is conducted in the presence of FVIII-depleted or inhibited plasma.
The Defined Fibrin Deposition Assay is performed as follows. FVIII activity of human citrated plasma (Baxter AG) is first inhibited by incubating (2 hours, 37° C.) 100 μl of human normal plasma with 25 μl heat inactivated anti-human FVIII plasma (300 BU/ml, 6 hours incubated at 56° C.) raised in goat. For each sample to be tested, 125 μl of this FVIII-inhibited human normal plasma is transferred to a pre-warmed cuvette and a 75 μl dilution of a test compound or FEIBA reference standard (Baxter AG) is added. The dilutions of test compound or FEIBA reference standard contain 50 mM imidazole, 100 mM NaCl and 10 mg/ml human serum albumin (Sigma) pH 7.4. As a trigger and for providing procoagulant surfaces 100 μl of a mix of human factor XIa (3.13 nM, Enzyme Research Laboratories) and phospholipid (PL) vesicles (Phosphatidylcholine/Phosphatidylserine 60%/40%, 30 μM; Avanti Polar Lipids) in 50 mM Imidazole, 100 mM NaCl, 10 mg/ml human serum albumin (Sigma) pH 7.4 is included. After incubating for three minutes at 37° C. the coagulation reaction is started by adding 100 μl of 25 mM CaCl2. Clot formation is monitored by a coagulometer (KC10A, Amelung, Germany). In brief, each cuvette rotates slowly above the magnetic detection device and contains a small magnetic metallic ball. Whilst the plasma components remain in solution, the ball sits at the bottom of the cuvette. Over time, a clot begins to form, such that the ball starts to rotate with the developing clot in the rotating cuvette. The “clotting time” is recorded and is defined as the time from addition of the CaCl2) to the time that the developing clot begins to rotate the metallic ball. A standard curve for FEIBA reference standard dilutions is calculated by linear regression of logarithmic FEIBA concentrations (x-axis) against the clotting time (y-axis). Based on the clotting time of each compound concentration FEIBA equivalent activities are calculated according to this standard curve.
Thus, where a concentration of 100 μM is given, the actual concentration in the final assay volume in 25 μM.
Various peptides were tested for the ability to stimulate fibrin deposition in the Defined Fibrin Deposition Assay as described in the specific description.

[2] = test system: human FVIII inhibited plasma; assay: Defined Intrinsic Thrombin Generation Assay (DITGA, triggered by FXIa and phospholipids); format: biochemical; conditions: for Activity in the Defined Intrinsic Thrombin Generation Assay: summary
Text: (§1) The intrinsic pathway of thrombin generation may be assayed in a thrombin generation assay by including FXIa and phospholipids. In such an assay, which is similar to an activated partial thromboplastin time (aPTT) test, thrombin generation is solely directed through the intrinsic pathway, and is FVIII dependent. A suitable assay is the Defined Intrinsic Thrombin Generation Assay described below. Alternatively, by employing low concentrations of TF and phospholipids instead of FXIa and phospholipids, thrombin is generated by both the extrinsic (tissue factor) and the intrinsic pathways. This form of the thrombin generation assay is the more physiologic one, as both thrombin generation pathways are involved; it is partially FVIII dependent. A suitable assay is the Defined Dual-Pathway Thrombin Generation Assay.
The Defined Intrinsic Thrombin Generation Assay is performed as follows. FVIII activity of human plasma is inhibited by incubating (2 hours, 37° C.) 40 μl of human normal plasma with 10 μl heat inactivated anti-human FVIII plasma raised in goat (600 BU/ml, 6 hours incubated at 56° C.). […] Instead of FVIII-inhibited plasma, FVIII inhibitor patient plasma or several depleted plasmas can be used. The micro-plate is immediately put into a GENios Plus (Tecan) or Safire 2 (Tecan) fluorescence reader and the fluorescence signal (ex 340 nm/em 440 nm) is followed kinetically by reading the plate every 21 seconds.
For calculation of activity equivalent units experiments are performed with dilutions of Factor Eight Inhibitor Bypassing Agent (FEIBA, Baxter AG), Immunate (human FVIII, purified plasma derived) reference standard (Baxter AG) or Recombinate standard (human FVIII, purified recombinant, Baxter AG). A linear fit of the logarithm of FEIBA (FVIII) concentration plotted against thrombin generation time at peak thrombin results in a standard curve. With this curve FEIBA (FVIII) equivalent activity is calculated for a defined peptide concentration. […] Thus, where a concentration of 100 μM is given, the actual concentration in the final assay volume in 40 μM.
Compounds were screened using the “Defined intrinsic thrombin generation assay” in which thrombin generation was quantified in vitro in FVIII-inhibited human plasma in the presence of Factor XIa and phospholipid vesicles. Further compounds were screened in the above assay, and in the “Defined dual-pathway thrombin generation assay” using tissue factor and phospholipids instead of Factor XIa and phospholipids, as described in the specific description.
Various concentrations of each peptide were tested in the defined intrinsic thrombin generation assay using human FVIII inhibited plasma.

FVIII inhibited plasma = assay: Defined Dual-Pathway Thrombin Generation Assay (DDPTGA, reagent C high), FVIII inhibited plasma; format: biochemical, human; conditions: for Peak IIa FEIBA EU / Peak IIa FVIIa EU / Peak Time FEIBA EU / Peak Time FVIIa EU: FVIII inhibited plasma; for Activity in the Defined Dual-Pathway Thrombin Generation Assay: summary, FVIII inhibited or deficient plasma
Text: as §1
(§2) Preferably, Reagent C high is used.
(§3) Tissue factor dependency of peak thrombin generation and thrombin peak time was characterised in a composition containing a fixed concentration of phospholipid (namely 3.2 μM). Phospholipid dependency was characterised in a composition containing a fixed concentration of tissue factor (namely 7.2 μM). Peak time (time to peak thrombin generation) was dependent on the concentration of phospholipid or tissue factor. The final version of this assay is as described in the specific description, in which 10 μl reagent C high containing (32 μM phospholipid and 71.6 μM tissue factor) is used in a total volume of 100 μl.
(§4) Further studies were conducted using 3.2 μM phospholipid and 7.2 μM tissue factor in FVIII deficient or inhibited plasma, to characterise the effect on peak thrombin generation and thrombin peak time of various coagulation factor preparations. These studies provided a basis from which to compare the efficacy of the compounds in the assay. Briefly, rFVIII (Recombinate® FVIII from Baxter) was tested at 0, 5, 10, 20, 40 and 80 mU/ml in FVIII deficient plasma. FEIBA was tested at 0, 8, 16, 31, 63 and 125 mU/ml in FVIII inhibited plasma. FVIIa was tested at 0, 0.1, 0.4, 1.6, 6.3 and 25 nM in FVIII inhibited plasma. […] Peak thrombin increased and both the lag time and the thrombin peak time decrease.

FVIII deficient plasma = assay: Defined Dual-Pathway Thrombin Generation Assay (DDPTGA, reagent C high), FVIII deficient plasma; format: biochemical, human; conditions: for Effect on both peak time and peak IIa of thrombin generation: DDPTGA, comment on Table 10; for Peak IIa FVIII EU / Peak Time FVIII EU: FVIII deficient plasma
Text: as §1, §2, §3, §4

| Compound | Thrombin peak time given as FEIBA equivalent activity ([2]; peptide 12.5 μM) [mU/ml] | Thrombin peak time given as FEIBA equivalent activity ([2]; peptide 25 μM) [mU/ml] | Thrombin peak time given as FEIBA equivalent activity ([2]; peptide 50 μM) [mU/ml] | Thrombin peak time given as FEIBA equivalent activity ([2]; peptide 100 μM) [mU/ml] | Activity in the Defined Intrinsic Thrombin Generation Assay [2] | Peak IIa FEIBA EU (FVIII inhibited plasma; peptide 100 μM) | Peak IIa FVIIa EU (FVIII inhibited plasma; peptide 100 μM) | Peak Time FEIBA EU (FVIII inhibited plasma; peptide 100 μM) | Peak Time FVIIa EU (FVIII inhibited plasma; peptide 100 μM) | Activity in the Defined Dual-Pathway Thrombin Generation Assay (FVIII inhibited plasma) | Effect on both peak time and peak IIa of thrombin generation (FVIII deficient plasma) | Peak IIa FVIII EU (FVIII deficient plasma; peptide 100 μM) | Peak Time FVIII EU (FVIII deficient plasma; peptide 100 μM) | Peak IIa FEIBA EU (FVIII inhibited plasma; peptide 50 μM) | Peak IIa FVIIa EU (FVIII inhibited plasma; peptide 50 μM) | Peak Time FEIBA EU (FVIII inhibited plasma; peptide 50 μM) | Peak Time FVIIa EU (FVIII inhibited plasma; peptide 50 μM) | Peak IIa FVIII EU (FVIII deficient plasma; peptide 50 μM) | Peak Time FVIII EU (FVIII deficient plasma; peptide 50 μM) | also measured |
| --- | --- | --- | --- | --- | --- | --- | --- | --- | --- | --- | --- | --- | --- | --- | --- | --- | --- | --- | --- | --- |
| CC[C@@H](C)[C@H]1NC(=O)[C@H](NC(C)=O)CSSC[C@H](C(=O)N[C@H](Cc2ccc(O)cc2)C(=O)N[C@H](CCC(=O)O)C(N)=O)NC(=O)[C@@H](CC(=O)O)NC(=O)[C@@H](Cc2ccc(O)cc2)NC(=O)[C@@H](Cc2c[nH]c3ccccc23)NC(=O)[C@@H](Cc2ccccc2)NC(=O)[C@@H](CCSC)NC1=O [Peptide B01, Ac-(cimfwydc)-ye-NH2] (Ac-[dC][dI][dM][dF][dW][dY][dD][dC][dY][dE]-NH2; disulfide 1-8) | 35 | 62 | 89 | 103 | possess activity | – | – | – | – | – | – | – | – | – | – | – | – | – | – | FEIBA EU (from clotting time) ([1]; compound 25 μM): 31 mU/ml; FEIBA EU (from clotting time) ([1]; compound 50 μM): 47 mU/ml; FEIBA EU (from clotting time) ([1]; compound 100 μM): 94 mU/ml; Activity in the Defined Fibrin Deposition Assay ([1]; summary): possess activity |
| CC[C@@H](C)[C@@H](NC(=O)[C@@H](CSSC[C@@H](NC(C)=O)C(=O)N[C@@H](C(=O)N[C@H](CCSC)C(=O)N[C@H](Cc1ccccc1)C(=O)N[C@H](Cc1c[nH]c2ccccc12)C(=O)N[C@H](Cc1ccc(O)cc1)C(=O)N[C@H](CC(=O)O)C(=O)N[C@H](CCC(=O)O)C(=O)N[C@H](Cc1ccc(O)cc1)C(=O)N[C@H](CCC(=O)O)C(N)=O)[C@H](C)CC)NC(C)=O)C(=O)N[C@H](CCSC)C(=O)N[C@H](Cc1ccccc1)C(=O)N[C@H](Cc1c[nH]c2ccccc12)C(=O)N[C@H](Cc1ccc(O)cc1)C(=O)N[C@H](CC(=O)O)C(=O)N[C@H](CCC(=O)O)C(=O)N[C@H](Cc1ccc(O)cc1)C(=O)N[C@H](CCC(=O)O)C(N)=O [Peptide B04, Disulphide-Dimer(Ac-cimfwydeye-NH2)2] (I: Ac-[dC][dI][dM][dF][dW][dY][dD][dE][dY][dE]-NH2 / II: Ac-[dC][dI][dM][dF][dW][dY][dD][dE][dY][dE]-NH2; disulfide I:1-II:1) | – | – | – | – | – | 13.3 mU/ml | 0.7 nM | BLS (BLS = below lowest standard.) | BLS (BLS = below lowest standard.) | possess activity | positively affected | 5.0 mU/ml | 1.6 mU/ml | – | – | – | – | – | – | Peak IIa FEIBA EU (FVIII inhibited plasma; peptide 16 μM): BLS (BLS = below lowest standard.); Peak IIa FVIIa EU (FVIII inhibited plasma; peptide 16 μM): 0.1 nM; Peak Time FEIBA EU (FVIII inhibited plasma; peptide 16 μM): BLS (BLS = below lowest standard.); Peak Time FVIIa EU (FVIII inhibited plasma; peptide 16 μM): BLS (BLS = below lowest standard.); Peak IIa FEIBA EU (FVIII inhibited plasma; peptide 40 μM): 12.8 mU/ml; Peak IIa FVIIa EU (FVIII inhibited plasma; peptide 40 μM): 0.6 nM; Peak Time FEIBA EU (FVIII inhibited plasma; peptide 40 μM): BLS (BLS = below lowest standard.); Peak Time FVIIa EU (FVIII inhibited plasma; peptide 40 μM): BLS (BLS = below lowest standard.); Peak IIa FVIII EU (FVIII deficient plasma; peptide 16 μM): 4.4 mU/ml; Peak Time FVIII EU (FVIII deficient plasma; peptide 16 μM): 4.1 mU/ml; Peak IIa FVIII EU (FVIII deficient plasma; peptide 40 μM): 4.8 mU/ml; Peak Time FVIII EU (FVIII deficient plasma; peptide 40 μM): 7.3 mU/ml |
| Ac-WDLYFEISW-ttds-E [Peptide A15] | – | – | – | – | – | 13.6 mU/ml | 0.7 nM | BLS (BLS = below lowest standard.) | BLS (BLS = below lowest standard.) | possess activity | positively affected | 5.0 mU/ml | 12.7 mU/ml | BLS (BLS = below lowest standard.) | BLS (BLS = below lowest standard.) | BLS (BLS = below lowest standard.) | BLS (BLS = below lowest standard.) | 4.3 mU/ml | 14.4 mU/ml | – |
| Ac-WDLYFEIVW-ttds-K [Peptide A20] | 501 | 597 | 873 | 1101 | possess activity | – | – | – | – | – | – | – | – | – | – | – | – | – | – | Thrombin peak time given as FEIBA equivalent activity ([2]; peptide 6.25 μM): 391 mU/ml |
| Ac-WSLYFEIVWE [Peptide A14] | – | – | – | – | – | BLS (BLS = below lowest standard.) | BLS (BLS = below lowest standard.) | BLS (BLS = below lowest standard.) | BLS (BLS = below lowest standard.) | – | – | BLS (BLS = below lowest standard.) | BLS (BLS = below lowest standard.) | BLS (BLS = below lowest standard.) | BLS (BLS = below lowest standard.) | BLS (BLS = below lowest standard.) | BLS (BLS = below lowest standard.) | BLS (BLS = below lowest standard.) | BLS (BLS = below lowest standard.) | – |
| PEG5000-ERMEFDVWDLYFEIVW-NH2 [Peptide A18] | – | – | – | – | – | BLS (BLS = below lowest standard.) | BLS (BLS = below lowest standard.) | BLS (BLS = below lowest standard.) | BLS (BLS = below lowest standard.) | possess activity | – | BLS (BLS = below lowest standard.) | 17.1 mU/ml | BLS (BLS = below lowest standard.) | BLS (BLS = below lowest standard.) | BLS (BLS = below lowest standard.) | BLS (BLS = below lowest standard.) | BLS (BLS = below lowest standard.) | BLS (BLS = below lowest standard.) | – |
